Active and inactive are the calls of the source. The calls are words filed in the database; no cut-off is given here.
Key:
[1] = tested on: A549; assay: cells; conditions: Homo sapiens, A549, 48 h
Description: Antiproliferative activity against human A549 cells assessed as inhibition of cell growth incubated for 48 hrs by CCK-8 assay

[2] = tested on: HCT-116; assay: cells; conditions: Homo sapiens, HCT-116, 48 h
Description: Antiproliferative activity against human HCT-116 cells assessed as inhibition of cell growth incubated for 48 hrs by CCK-8 assay

[3] = Tmax in Sprague-Dawley rat at 10 mg/kg,iv administration measured upto 24 hrs by LC-MS/MS analysis; type: ADME, organism-based; conditions: in vivo
[4] = target: CDK6/cyclin D3 (Homo sapiens) (UniProt P30281+Q00534); assay: Inhibition of CDK6/CyclinD3 (unknown origin) at 100 nM preincubated for 15 mins followed by substrate and ATP addition incubated for 10 mins by ADP-glo luminescent assay relative to control; type: protein-complex assay; conditions: time 25.0 min
[5] = Cmax in Sprague-Dawley rat at 10 mg/kg,iv administration measured upto 24 hrs by LC-MS/MS analysis; type: ADME, organism-based; conditions: in vivo
[6] = Half life in human liver microsomes in presence of NADPH incubated for 5 to 45 mins by LC/MS analysis; type: ADME, Microsome; conditions: time 5-45 min
[7] = target: CDK2/Cyclin A2 (Homo sapiens) (UniProt P24941+P20248); assay: Inhibition of CDK2/CyclinA2 (unknown origin) at 100 nM preincubated for 15 mins followed by substrate and ATP addition incubated for 10 mins by ADP-glo luminescent assay relative to control; type: protein-complex assay; conditions: time 25.0 min
[8] = tested on: MDA-MB-231; assay: Induction of cell cycle arrest in human MDA-MB-231 cells assessed as accumulation of cells at G1 phase at 10 uM incubated for 24 hrs by RNase/PI staining based flow cytometric analysis; type: functional
[9] = tested on: MDA-MB-231; assay: Induction of cell cycle arrest in human MDA-MB-231 cells assessed as accumulation of cells at G2 phase at 10 uM incubated for 24 hrs by RNase/PI staining based flow cytometric analysis; type: functional
[10] = Intrinsic clearance in human liver microsomes in presence of NADPH incubated for 5 to 45 mins by LC/MS analysis; type: ADME, Microsome; conditions: time 5-45 min, read-out: CLH
[11] = Half life in Sprague-Dawley rat at 10 mg/kg,iv administration measured upto 24 hrs by LC-MS/MS analysis; type: ADME, organism-based; conditions: in vivo
[12] = Clearance in Sprague-Dawley rat at 10 mg/kg,iv administration measured upto 24 hrs by LC-MS/MS analysis; type: ADME, organism-based; conditions: in vivo
[13] = AUC (0 to t) in Sprague-Dawley rat at 10 mg/kg,iv administration measured upto 24 hrs by LC-MS/MS analysis; type: ADME, organism-based; conditions: in vivo
[14] = tested on: HepG2; assay: cells; conditions: Homo sapiens, HepG2, 48 h
Description: Antiproliferative activity against human HepG2 cells assessed as inhibition of cell growth incubated for 48 hrs by CCK-8 assay

[15] = tested on: MDA-MB-231; assay: Antitumor activity against human MDA-MB-231 cells xenografted in BALB/c mouse assessed as tumor growth inhibition at 40 mg/kg,ip administrated for 21 consecutive days; type: functional; conditions: read-out: TGI
[16] = MRT (0 to t) in Sprague-Dawley rat at 10 mg/kg,iv administration measured upto 24 hrs by LC-MS/MS analysis; type: ADME, organism-based; conditions: in vivo
[17] = tested on: HCT-116; assay: Induction of cell cycle arrest in human HCT-116 cells assessed as accumulation of cells at G1 phase at 10 uM incubated for 24 hrs by RNase/PI staining based flow cytometric analysis; type: functional
[18] = tested on: MDA-MB-231; assay: cells; conditions: Homo sapiens, MDA-MB-231, 48 h
Description: Antiproliferative activity against human MDA-MB-231 cells assessed as inhibition of cell growth incubated for 48 hrs by CCK-8 assay

[19] = tested on: HCT-116; assay: Induction of cell cycle arrest in human HCT-116 cells assessed as accumulation of cells at G2 phase at 10 uM incubated for 24 hrs by RNase/PI staining based flow cytometric analysis; type: functional

## O=C1Nc2ccccc2/C1=C1/Nc2ccccc2/C1=N\O
[1]
  IC50: 4.04 µM
[2]
  IC50: 4.22 µM
[3]
  Tmax: 48 min
[4]
  inhibition: 51.1%
[5]
  Cmax: 8730 ng/mL
[6]
  half-life: 29 min
[7]
  inhibition: 40.3%
[8]
  Activity: Active
[9]
  Activity: Active
[10]
  CLint scaled: 55.2 mL/min/kg
[11]
  half-life: 228 min
[12]
  clearance: 12.8 mL/min/kg
[13]
  AUC(0-t) at 24 h: 12900 ng·h/mL
[14]
  IC50: 5.66 µM
[15]
  inhibition in vivo at 40 mg/kg: 59.4%
[16]
  MRT last at 24 h: 2.7 h
[17]
  Activity: Active
[18]
  IC50: 5.16 µM
[19]
  Activity: Active

— ChEMBL document CHEMBL5528035, “Design, Synthesis, and Biological Evaluation for First GPX4 and CDK Dual Inhibitors” (J Med Chem, 2024)
